Assay results: patent US11564924B2, “Pharmaceutical composition formed by combining pyridoxamine compound and thiamine compound” (RENASCIENCE CO., LTD., priority 2014, dated 2023)

Columns and labels:
schizophrenia patients = assay: Total PANSS score in schizophrenia patients given the pyridoxamine compound; format: in vivo, human; conditions: for Change from baseline in total PANSS score, Maximum / Change from baseline in total PANSS score, Median / Change from baseline in total PANSS score, Minimum / Change from baseline in total PANSS score, Mean change: FAS; for Change from baseline in total PANSS score, Mean change: 1200-2400 mg per day oral
From the text: The target subjects (subjects) of this test (administration of a pyridoxamine compound; hereinafter, this is also referred to as “drug administration”) were patients who were diagnosed with schizophrenia and met all of the following conditions (1) to (3):
Drug administration was initiated for nine subjects from whom consent was obtained. The observation period was defined as the period from the day on which consent was obtained (Day −14) to the day 2 weeks after the day of consent (Day 0), and the initial day of drug administration was defined as Day 1. The data of Day 1 is data immediately before the start of administration of the pyridoxamine compound. The drug administration period was defined as the 24-week period from the start of drug administration (Day 1 to Day 169).
In the drug administration, pyridoxamine dihydrochloride was used as the pyridoxamine compound and orally administered in an amount of 1200 mg, 1800 mg, or 2400 mg per day (administered three times a day, morning, noon, and before bedtime, in an amount of 400 mg, 600 mg, or 800 mg each time). In the drug administration period, the dose was increased or decreased within the above range according to the condition of each patient.
The effect of administration of the pyridoxamine compound (drug administration) was evaluated according to the Positive and Negative Syndrome Scale (PANSS) score and the concentration of pentosidine in blood of the schizophrenia patients.
The PANSS score was determined by SCI-PANSS, which uses a structured interview, according to the Positive and Negative Syndrome Scale (PANSS) manual (translated by Hiroshi Yamada, Kanji Masui, and Hirotsugu Kikumoto; Tokyo: Seiwa Shoten Co., Ltd., 1991). An interview for evaluation was conducted for 30 evaluation items. Each item was scored on a scale of 1 to 7. The sum of the scores was calculated, and the difference between the PANSS score on Day 1 and the PANSS score on each test day was determined. […] The subjects were prohibited from taking hypnotic drugs or antianxiety drugs within 4 hours before PANSS evaluation.

pentosidine = assay: Plasma pentosidine concentration in schizophrenia patients (HPLC); format: in vivo, human; conditions: Day 169 vs Day 1; nine subjects
From the text: Drug administration was initiated for nine subjects from whom consent was obtained. The observation period was defined as the period from the day on which consent was obtained (Day −14) to the day 2 weeks after the day of consent (Day 0), and the initial day of drug administration was defined as Day 1. The data of Day 1 is data immediately before the start of administration of the pyridoxamine compound. The drug administration period was defined as the 24-week period from the start of drug administration (Day 1 to Day 169). […]
In the morning […], on the initial day of drug administration (Day 1), and on Day 15, Day 29, Day 85, and Day 169 after the start of drug administration, blood was drawn from the nine subjects above before administration of the drug. […] The plasma pentosidine concentration was measured according to the method described below. […]
The samples prepared as described above were diluted 10-fold with Milli-Q water (diluted samples). […] The diluted samples and the diluted pentosidine standard were subjected to HPLC (HPLC apparatus produced by Shimadzu Science) under the following conditions, and analysis of pentosidine was performed with a fluorescence measuring device (SLC-10Avp; equipped with UV and fluorescence detectors). […]

## Cc1ncc(CO)c(CN)c1O.Cl.Cl [pyridoxamine dihydrochloride]
Schizophrenia patients; Day 15 (2 w)
  Change from baseline in total PANSS score, Maximum: 12
  Change from baseline in total PANSS score, Median: 3.0
  Change from baseline in total PANSS score, Minimum: −44
  Change from baseline in total PANSS score, Mean change: −3.7
Schizophrenia patients; Day 29 (4 w)
  Change from baseline in total PANSS score, Maximum: 10
  Change from baseline in total PANSS score, Median: 1.0
  Change from baseline in total PANSS score, Minimum: −49
  Change from baseline in total PANSS score, Mean change: −4.4
Schizophrenia patients; Day 57 (8 w)
  Change from baseline in total PANSS score, Maximum: 13
  Change from baseline in total PANSS score, Median: 1.0
  Change from baseline in total PANSS score, Minimum: −58
  Change from baseline in total PANSS score, Mean change: −5.0
Schizophrenia patients; Day 85 (12 w)
  Change from baseline in total PANSS score, Maximum: 21
  Change from baseline in total PANSS score, Median: −3.0
  Change from baseline in total PANSS score, Minimum: −65
  Change from baseline in total PANSS score, Mean change: −7.3
Schizophrenia patients; Day 113 (16 w)
  Change from baseline in total PANSS score, Maximum: 8
  Change from baseline in total PANSS score, Median: −5.0
  Change from baseline in total PANSS score, Minimum: −69
  Change from baseline in total PANSS score, Mean change: −12.2
Schizophrenia patients; Day 141 (20 w)
  Change from baseline in total PANSS score, Maximum: 17
  Change from baseline in total PANSS score, Median: −1.5
  Change from baseline in total PANSS score, Minimum: −64
  Change from baseline in total PANSS score, Mean change: −9.6
Schizophrenia patients; Day 169 (24 w)
  Change from baseline in total PANSS score, Maximum: 14
  Change from baseline in total PANSS score, Median: −7.5
  Change from baseline in total PANSS score, Minimum: −69
  Change from baseline in total PANSS score, Mean change: −11.4
Schizophrenia patients; Final evaluation time point
  Change from baseline in total PANSS score, Maximum: 14
  Change from baseline in total PANSS score, Median: −5.0
  Change from baseline in total PANSS score, Minimum: −69
  Change from baseline in total PANSS score, Mean change: −10.6
Schizophrenia patients; day 15 after the start of drug administration (Day 15)
  PANSS score decreased by an average of: 3.7 points
Schizophrenia patients; day 113 after the start of drug administration (Day 113)
  PANSS score decreased by an average of: 12.2 points
Schizophrenia patients; schizophrenia patients, 24-week administration
  effect on the symptom of schizophrenia: effective in improving the symptom of schizophrenia
pentosidine
  blood pentosidine concentration at the end of administration versus Day 1: lower than that on Day 1 in at least seven subjects
